Experimental data from the CheMixHub viscosity set.

Assay: xn = mol fraction of the nth substance listed

COC(C)=O + CCCCCC
Details | viscosity [mPa·s]
298.15 K, 101 kPa, x1 = 0.0412 | 0.29
298.15 K, 101 kPa, x1 = 0.1497 | 0.289
298.15 K, 101 kPa, x1 = 0.2521 | 0.291
298.15 K, 101 kPa, x1 = 0.3502 | 0.295
298.15 K, 101 kPa, x1 = 0.4406 | 0.3
298.15 K, 101 kPa, x1 = 0.4839 | 0.303
298.15 K, 101 kPa, x1 = 0.5505 | 0.309
298.15 K, 101 kPa, x1 = 0.6499 | 0.32
298.15 K, 101 kPa, x1 = 0.7508 | 0.334
298.15 K, 101 kPa, x1 = 0.8488 | 0.351
298.15 K, 101 kPa, x1 = 0.941 | 0.37
298.15 K, 101.3 kPa, x1 = 0.1056 | 0.2969
298.15 K, 101.3 kPa, x1 = 0.2943 | 0.2941
298.15 K, 101.3 kPa, x1 = 0.4514 | 0.2996
298.15 K, 101.3 kPa, x1 = 0.5616 | 0.3071
298.15 K, 101.3 kPa, x1 = 0.6895 | 0.3189
298.15 K, 101.3 kPa, x1 = 0.7175 | 0.3223
298.15 K, 101.3 kPa, x1 = 0.8224 | 0.342
298.15 K, 101.3 kPa, x1 = 0.9171 | 0.365
303.15 K, 101.3 kPa, x1 = 0.1069 | 0.276
303.15 K, 101.3 kPa, x1 = 0.204 | 0.2755
303.15 K, 101.3 kPa, x1 = 0.306 | 0.2772
303.15 K, 101.3 kPa, x1 = 0.406 | 0.2809
303.15 K, 101.3 kPa, x1 = 0.4998 | 0.2857
303.15 K, 101.3 kPa, x1 = 0.602 | 0.2937
303.15 K, 101.3 kPa, x1 = 0.6984 | 0.3048
303.15 K, 101.3 kPa, x1 = 0.8014 | 0.3165
303.15 K, 101.3 kPa, x1 = 0.8998 | 0.3298
308.15 K, 101 kPa, x1 = 0.0412 | 0.272
308.15 K, 101 kPa, x1 = 0.1497 | 0.271
308.15 K, 101 kPa, x1 = 0.2521 | 0.273
308.15 K, 101 kPa, x1 = 0.3502 | 0.276
308.15 K, 101 kPa, x1 = 0.4406 | 0.28
308.15 K, 101 kPa, x1 = 0.4839 | 0.283
308.15 K, 101 kPa, x1 = 0.5505 | 0.288
308.15 K, 101 kPa, x1 = 0.6499 | 0.297
308.15 K, 101 kPa, x1 = 0.7508 | 0.309
308.15 K, 101 kPa, x1 = 0.8488 | 0.323
308.15 K, 101 kPa, x1 = 0.941 | 0.339

C1CCCCC1 + CCCCCCC
Details | viscosity [mPa·s]
298.15 K, 101 kPa, x1 = 0.3947 | 0.588
298.15 K, 101 kPa, x1 = 0.4171 | 0.598
298.15 K, 101 kPa, x1 = 0.4283 | 0.604
298.15 K, 101 kPa, x1 = 0.4413 | 0.612
298.15 K, 101 kPa, x1 = 0.4536 | 0.618
298.15 K, 101 kPa, x1 = 0.4623 | 0.622
298.15 K, 101 kPa, x1 = 0.469 | 0.626
298.15 K, 101 kPa, x1 = 0.4767 | 0.629
298.15 K, 101 kPa, x1 = 0.4813 | 0.631
298.15 K, 101 kPa, x1 = 0.4869 | 0.634
298.15 K, 101 kPa, x1 = 0.4921 | 0.636
298.15 K, 101 kPa, x1 = 0.4949 | 0.638
298.15 K, 101 kPa, x1 = 0.499 | 0.64
298.15 K, 101 kPa, x1 = 0.5069 | 0.644
298.15 K, 101 kPa, x1 = 0.5154 | 0.648
298.15 K, 101.33 kPa, x1 = 0.1013 | 0.406
298.15 K, 101.33 kPa, x1 = 0.1036 | 0.4183
298.15 K, 101.33 kPa, x1 = 0.2023 | 0.4381
298.15 K, 101.33 kPa, x1 = 0.2027 | 0.425
298.15 K, 101.33 kPa, x1 = 0.2962 | 0.46
298.15 K, 101.33 kPa, x1 = 0.304 | 0.448
298.15 K, 101.33 kPa, x1 = 0.3888 | 0.484
298.15 K, 101.33 kPa, x1 = 0.4037 | 0.475
298.15 K, 101.33 kPa, x1 = 0.4752 | 0.512
298.15 K, 101.33 kPa, x1 = 0.4998 | 0.505
298.15 K, 101.33 kPa, x1 = 0.5556 | 0.5415
298.15 K, 101.33 kPa, x1 = 0.6018 | 0.546
298.15 K, 101.33 kPa, x1 = 0.6389 | 0.5789
298.15 K, 101.33 kPa, x1 = 0.6985 | 0.594
298.15 K, 101.33 kPa, x1 = 0.7049 | 0.6136
298.15 K, 101.33 kPa, x1 = 0.7751 | 0.6582
298.15 K, 101.33 kPa, x1 = 0.8024 | 0.661
298.15 K, 101.33 kPa, x1 = 0.8468 | 0.7195
298.15 K, 101.33 kPa, x1 = 0.9002 | 0.751
298.15 K, 101.33 kPa, x1 = 0.9096 | 0.7778
298.15 K, 101.33 kPa, x1 = 0.9735 | 0.8588
298.15 K, 101.33 kPa, x2 = 0.1008 | 0.776
298.15 K, 101.33 kPa, x2 = 0.2001 | 0.68
298.15 K, 101.33 kPa, x2 = 0.2493 | 0.641
298.15 K, 101.33 kPa, x2 = 0.3511 | 0.578
298.15 K, 101.33 kPa, x2 = 0.4012 | 0.556
298.15 K, 101.33 kPa, x2 = 0.4993 | 0.52
298.15 K, 101.33 kPa, x2 = 0.5726 | 0.483
298.15 K, 101.33 kPa, x2 = 0.6007 | 0.479
298.15 K, 101.33 kPa, x2 = 0.7471 | 0.447
298.15 K, 101.33 kPa, x2 = 0.8984 | 0.409
303.15 K, 101 kPa, x1 = 0.0998 | 0.3894
303.15 K, 101 kPa, x1 = 0.2012 | 0.4064
303.15 K, 101 kPa, x1 = 0.298 | 0.4275
303.15 K, 101 kPa, x1 = 0.3986 | 0.454
303.15 K, 101 kPa, x1 = 0.5009 | 0.4857
303.15 K, 101 kPa, x1 = 0.5994 | 0.524
303.15 K, 101 kPa, x1 = 0.7025 | 0.5716
303.15 K, 101 kPa, x1 = 0.7975 | 0.6321
303.15 K, 101 kPa, x1 = 0.9009 | 0.7191
303.15 K, 101.33 kPa, x1 = 0.1013 | 0.386
303.15 K, 101.33 kPa, x1 = 0.2027 | 0.402
303.15 K, 101.33 kPa, x1 = 0.304 | 0.422
303.15 K, 101.33 kPa, x1 = 0.4037 | 0.447
303.15 K, 101.33 kPa, x1 = 0.4998 | 0.477
303.15 K, 101.33 kPa, x1 = 0.6018 | 0.512
303.15 K, 101.33 kPa, x1 = 0.6985 | 0.556
303.15 K, 101.33 kPa, x1 = 0.8024 | 0.619
303.15 K, 101.33 kPa, x1 = 0.9002 | 0.694
308.15 K, 101.33 kPa, x1 = 0.1013 | 0.365
308.15 K, 101.33 kPa, x1 = 0.2027 | 0.379
308.15 K, 101.33 kPa, x1 = 0.304 | 0.399
308.15 K, 101.33 kPa, x1 = 0.4037 | 0.422
308.15 K, 101.33 kPa, x1 = 0.4998 | 0.448
308.15 K, 101.33 kPa, x1 = 0.6018 | 0.481
308.15 K, 101.33 kPa, x1 = 0.6985 | 0.52
308.15 K, 101.33 kPa, x1 = 0.8024 | 0.577
308.15 K, 101.33 kPa, x1 = 0.9002 | 0.643

CCC(C)=O + CCCCCCC
298 K, 101.33 kPa
Details | viscosity [mPa·s]
x2 = 0.1271 | 0.3686
x2 = 0.2092 | 0.3655
x2 = 0.3055 | 0.3637
x2 = 0.4593 | 0.3646
x2 = 0.5955 | 0.3649
x2 = 0.7044 | 0.3677
x2 = 0.8014 | 0.3721
x2 = 0.9011 | 0.3789

COC(C)=O + CCCCCCCC
298.15 K, 101.3 kPa
Details | viscosity [mPa·s]
x1 = 0.1268 | 0.4797
x1 = 0.2408 | 0.4518
x1 = 0.337 | 0.4361
x1 = 0.431 | 0.4213
x1 = 0.5066 | 0.4108
x1 = 0.5788 | 0.4021
x1 = 0.644 | 0.3953
x1 = 0.757 | 0.3849
x1 = 0.8528 | 0.3786
